Measured values from US11427548B2 (Arvinas Operations, Inc., priority 2015, dated 2022).
Read-outs that look alike come from different tables or passages of the source.

Target: T1, Androgen Receptor (Homo sapiens, UniProt P10275)
T1 construct: endogenous in cells; host or cells: VCaP cells
T1 sequence (P10275 1-920): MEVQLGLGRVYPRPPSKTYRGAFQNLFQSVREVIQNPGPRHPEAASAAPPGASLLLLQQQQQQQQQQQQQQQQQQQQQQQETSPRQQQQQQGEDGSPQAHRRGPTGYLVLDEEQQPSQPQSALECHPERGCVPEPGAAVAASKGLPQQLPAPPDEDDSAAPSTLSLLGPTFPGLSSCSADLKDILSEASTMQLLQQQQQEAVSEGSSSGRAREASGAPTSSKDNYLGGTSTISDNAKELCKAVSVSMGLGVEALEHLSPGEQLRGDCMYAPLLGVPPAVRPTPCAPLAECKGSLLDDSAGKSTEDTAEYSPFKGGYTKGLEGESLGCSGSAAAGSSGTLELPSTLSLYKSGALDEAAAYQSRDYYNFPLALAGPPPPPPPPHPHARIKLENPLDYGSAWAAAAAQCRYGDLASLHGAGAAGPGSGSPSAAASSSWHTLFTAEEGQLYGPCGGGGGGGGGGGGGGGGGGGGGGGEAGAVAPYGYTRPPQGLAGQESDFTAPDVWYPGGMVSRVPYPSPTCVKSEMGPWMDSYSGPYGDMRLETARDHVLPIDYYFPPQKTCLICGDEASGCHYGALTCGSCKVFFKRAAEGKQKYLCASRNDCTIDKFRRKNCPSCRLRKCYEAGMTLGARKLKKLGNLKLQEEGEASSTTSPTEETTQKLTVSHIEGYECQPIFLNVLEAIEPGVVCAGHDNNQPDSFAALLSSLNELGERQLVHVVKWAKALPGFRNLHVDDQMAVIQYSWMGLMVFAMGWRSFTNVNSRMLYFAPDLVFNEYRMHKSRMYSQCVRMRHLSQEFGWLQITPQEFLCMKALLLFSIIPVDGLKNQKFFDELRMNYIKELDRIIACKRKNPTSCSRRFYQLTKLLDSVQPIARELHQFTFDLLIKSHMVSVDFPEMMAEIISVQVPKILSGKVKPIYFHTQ
Test: Androgen Receptor ELISA assay (PathScan AR ELISA) in VCaP cells: AR degradation, Dmax and DC50
Format: cell-based
How it was run: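 After 24 h exposure of VCaP cells (charcoal-stripped serum, 0.1 nM R1881 agonist, 0.1% DMSO) to seven half-log compound concentrations, residual AR in lysates was measured by PathScan ELISA (TMB absorbance, 450 nm). Cells were plated at 30,000/well and grown at least 3 days beforehand.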

[1] = read-out: VCaP DC50; concentration that caused 50% Androgen Receptor degradation, VCaP cells (Table 32)

| Compound | Dmax (VCaP, read-out: VCaP Dmax (%)) [%] | DC50 [1] [nM] | Dmax (VCaP, highest percentage of Androgen Receptor degradation observed, VCaP cells (Table 32); read-out: VCaP Dmax (%)) [%] | DC50 (concentration that caused 50% Androgen Receptor degradation, VCaP cells (Table 32); read-out: VCaP DC50) [nM] |
| --- | --- | --- | --- | --- |
| Cn1cncc1-c1ccc(CNC(=O)[C@@H]2C[C@@H](O)CN2C(=O)[C@@H](NC(=O)COCCCCOc2ccc(-c3ccc(N4C(=S)N(c5ccc(C#N)c(C(F)(F)F)c5)C(=O)C4(C)C)cc3)cc2)C(C)(C)C)cc1 [Example 104, (2S,4R)-1-[(2S)-2-(2-{4-[4-(4-{3-[4-cyano-3-(trifluoromethyl)phenyl]-5,5-dimethyl-4-oxo-2-sulfanylideneimidazolidin-1-yl}phenyl)phenoxy]butoxy}acetamido)-3,3-dimethylbutanoyl]-4-hydroxy-N-{[4-(1-methyl-1H-imidazol-5-yl)phenyl]methyl}pyrrolidine-2-carboxamide] | > 71 | < 50 | – | – |
| CC(C)(C)[C@H](NC(=O)COCCCCOc1ccc(-c2ccc(N3C(=S)N(c4ccc(C#N)c(C(F)(F)F)c4)C(=O)C3(C)C)cc2)cc1)C(=O)N1C[C@H](O)C[C@H]1C(=O)NCc1ccc(-c2ocnc2Cl)cc1 [Example 105, (2S,4R)-N-{[4-(4-chloro-1,3-oxazol-5-yl)phenyl]methyl}-1-[(2S)-2-(2-{4-[4-(4-{3-[4-cyano-3-(trifluoromethyl)phenyl]-5,5-dimethyl-4-oxo-2-sulfanylideneimidazolidin-1-yl}phenyl)phenoxy]butoxy}acetamido)-3,3-dimethylbutanoyl]-4-hydroxypyrrolidine-2-carboxamide] | 51 to 70 | 51 to 500 | – | – |
| CC(C)(C)[C@H](NC(=O)COCCCCOc1ccc(-c2ccc(N3C(=S)N(c4ccc(C#N)c(Cl)c4)C(=O)C3(C)C)c(F)c2)cc1)C(=O)N1C[C@H](O)C[C@H]1C(=O)NCc1ccc(-c2cnco2)cc1 [Example 106, (2S,4R)-1-[(2S)-2-{2-[4-(4-{4-[3-(3-chloro-4-cyanophenyl)-5,5-dimethyl-4-oxo-2-sulfanylideneimidazolidin-1-yl]-3-fluorophenyl}phen-oxy)butoxy]acetamido}-3,3-dimethylbutanoyl]-4-hydroxy-N-{[4-(1,3-oxazol-5-yl)phenyl]methyl}pyrrolidine-2-carboxamide] | > 71 | < 50 | – | – |
| Cc1ncsc1-c1ccc(CNC(=O)[C@@H]2C[C@@H](O)CN2C(=O)[C@@H](NC(=O)COCCCCOc2ccc(-c3ccc(N4C(=S)N(c5ccc(C#N)c(Cl)c5)C(=O)C4(C)C)c(F)c3)cc2)C(C)(C)C)cc1 [Example 107, (2S,4R)-1-[(2S)-2-{2-[4-(4-{4-[3-(3-chloro-4-cyanophenyl)-5,5-dimethyl-4-oxo-2-sulfanylideneimidazolidin-1-yl]-3-fluorophenyl}phen-oxy)butoxy]acetamido}-3,3-dimethylbutanoyl]-4-hydroxy-N-{[4-(4-methyl-1,3-thiazol-5-yl)phenyl]methyl}pyrrolidine-2-carboxamide] | > 71 | < 50 | – | – |
| CC(C)(C)[C@H](NC(=O)COCCCCOc1ccc(-c2ccc(N3C(=S)N(c4ccc(C#N)c(Cl)c4)C(=O)C3(C)C)c(F)c2)cc1)C(=O)N1C[C@H](O)C[C@H]1C(=O)NCc1ccc(-c2cncs2)cc1 [Example 108, (2S,4R)-1-[(2S)-2-{2-[4-(4-{4-[3-(3-chloro-4-cyanophenyl)-5,5-dimethyl-4-oxo-2-sulfanylideneimidazolidin-1-yl]-3-fluorophenyl}phen-oxy)butoxy]acetamido}-3,3-dimethylbutanoyl]-4-hydroxy-N-{[4-(1,3-thiazol-5-yl)phenyl]methyl}pyrrolidine-2-carboxamide] | > 71 | < 50 | – | – |
| CC(C)(C)[C@H](NC(=O)COCCCCOc1ccc(-c2ccc(N3C(=S)N(c4ccc(C#N)c(Cl)c4)C(=O)C3(C)C)cc2F)cc1)C(=O)N1C[C@H](O)C[C@H]1C(=O)NCc1ccc(-c2cnco2)cc1 [Example 109, (2S,4R)-1-[(2S)-2-{2-[4-(4-{4-[3-(3-chloro-4-cyanophenyl)-5,5-dimethyl-4-oxo-2-sulfanylideneimidazolidin-1-yl]-2-fluorophenyl}phen-oxy)butoxy]acetamido}-3,3-dimethylbutanoyl]-4-hydroxy-N-{[4-(1,3-oxazol-5-yl)phenyl]methyl}pyrrolidine-2-carboxamide] | > 71 | < 50 | – | – |
| Cc1ncoc1-c1ccc(CNC(=O)[C@@H]2C[C@@H](O)CN2C(=O)[C@@H](NC(=O)COCCCCOc2ccc(-c3ccc(N4C(=S)N(c5ccc(C#N)c(Cl)c5)C(=O)C4(C)C)cc3)cc2)C(C)(C)C)cc1 [Example 110, (2S,4R)-1-[(2S)-2-{2-[4-(4-{4-[3-(3-chloro-4-cyanophenyl)-5,5-dimethyl-4-oxo-2-sulfanylideneimidazolidin-1-yl]phenyl}phenoxy)butoxy]acetamido}-3,3-dimethylbutanoyl]-4-hydroxy-N-{[4-(4-methyl-1,3-oxazol-5-yl)phenyl]methyl}pyrrolidine-2-carboxamide] | > 71 | < 50 | – | – |
| CC(C)(C)[C@H](NC(=O)COCCCCOc1ccc(-c2ccc(N3C(=S)N(c4ccc(C#N)c(Cl)c4)C(=O)C3(C)C)cc2)cc1)C(=O)N1C[C@H](O)C[C@H]1C(=O)NCc1ccc(-c2cncs2)cc1 [Example 111, (2S,4R)-1-[(2S)-2-{2-[4-(4-{4-[3-(3-chloro-4-cyanophenyl)-5,5-dimethyl-4-oxo-2-sulfanylideneimidazolidin-1-yl]phenyl}phenoxy)butoxy]acetamido}-3,3-dimethylbutanoyl]-4-hydroxy-N-{[4-(1,3-thiazol-5-yl)phenyl]methyl}pyrrolidine-2-carboxamide] | > 71 | < 50 | – | – |
| Cc1ncsc1-c1ccc(CNC(=O)[C@@H]2C[C@@H](O)CN2C(=O)[C@@H](NC(=O)COCCCCOc2ccc(-c3ccc(N4C(=S)N(c5ccc(C#N)c(Cl)c5)C(=O)C4(C)C)cc3)cc2)C(C)(C)C)cc1 [Example 112, (2S,4R)-1-[(2S)-2-{2-[4-(4-{4-[3-(3-chloro-4-cyanophenyl)-5,5-dimethyl-4-oxo-2-sulfanylideneimidazolidin-1-yl]phenyl}phen-oxy)butoxy]acetamido}-3,3-dimethylbutanoyl]-4-hydroxy-N-{[4-(4-methyl-1,3-thiazol-5-yl)phenyl]methyl}pyrrolidine-2-carboxamide] | > 71 | < 50 | – | – |
| Cc1ncsc1-c1ccc(CNC(=O)[C@@H]2C[C@@H](O)CN2C(=O)[C@@H](NC(=O)COc2cccc(Oc3ccc(-c4ccc(N5C(=S)N(c6ccc(C#N)c(C(F)(F)F)c6)C(=O)C5(C)C)cc4)cc3)c2)C(C)(C)C)cc1 [Example 114, (2S,4R)-1-[(2S)-2-(2-{3-[4-(4-{3-[4-cyano-3-(trifluoromethyl)phenyl]-5,5-dimethyl-4-oxo-2-sulfanylideneimidazolidin-1-yl}phenyl)phen-oxy]phenoxy}acetamido)-3,3-dimethylbutanoyl]-4-hydroxy-N-{[4-(4-methyl-1,3-thiazol-5-yl)phenyl]methyl}pyrrolidine-2-carboxamide] | 51 to 70 | < 50 | – | – |
| COc1cc(N2C(=O)C(C)(C)N(c3ccc(-c4ccc(OCCCCOCC(=O)N[C@H](C(=O)N5C[C@H](O)C[C@H]5C(=O)NCc5ccc(-c6ocnc6C)cc5)C(C)(C)C)cc4)cc3)C2=S)ccc1C#N [Example 115, (2S,4R)-1-[(2S)-2-{2-[4-(4-{4-[3-(4-cyano-3-methoxyphenyl)-5,5-dimethyl-4-oxo-2-sulfanylideneimidazolidin-1-yl]phenyl}phenoxy)butoxy]acetamido}-3,3-dimethylbutanoyl]-4-hydroxy-N-{[4-(4-methyl-1,3-oxazol-5-yl)phenyl]methyl}pyrrolidine-2-carboxamide] | – | – | > 71 | < 50 |
| Cc1ncoc1-c1ccc(CNC(=O)[C@@H]2C[C@@H](O)CN2C(=O)[C@@H](NC(=O)COCCCCOc2ccc(-c3ccc(N4C(=S)N(c5ccc(C#N)c(C(F)(F)F)c5)C(=O)C4(C)C)c(F)c3)cc2)C(C)(C)C)cc1 [Example 116, (2S,4R)-1-[(2S)-2-(2-{4-[4-(4-{3-[4-cyano-3-(trifluoromethyl)phenyl]-5,5-dimethyl-4-oxo-2-sulfanylideneimidazolidin-1-yl}-3-fluorophenyl)phen-oxy]butoxy}acetamido)-3,3-dimethylbutanoyl]-4-hydroxy-N-{[4-(4-methyl-1,3-oxazol-5-yl)phenyl]methyl}pyrrolidine-2-carboxamide] | > 71 | < 50 | – | – |
